Measurements from patent publication US6376504B1 (Parker Hughes Institute, priority 1998, dated 2002).
“Also recorded” adds a separate entry of the source. Read-outs that look alike come from different tables or passages of the source.

Tests used:
human sperm [1] = test: Sperm immobilizing activity, concentration-dependent, CASA; type: cell-based; settings: for EC50: Homo sapiens, Sperm, read-out: Spermicidal activity EC50 (sperm motility); for effect on sperm motility: concentrations as high as 500 μM
Protocol: All donor sperm specimens were obtained after informed consent and in compliance with the guidelines of the Hughes Institute Institutional Review Board. Motile sperm (≧10×10^6/ml), were suspended in 1 ml of Biggers, whitten, and Whittingam's medium (BWW) containing 25 mM HEPES (Irvine Scientific, Santa Ana, Calif.), and 0.3% BSA in the presence and absence of serial two-fold dilutions of test substance (500 μM to 31.2 μM) in 1% DMSO. The stock solutions of NNIs were prepared in DMSO (100 mM) and diluted in assay medium to yield the desired concentrations. Corresponding volume of DMSO (1%) was added to control tubes. N-9 was diluted in BWW-0.3% BSA (pH 7.4) to yield the desired concentrations (31.2 μM to 500 μM). After 3 hours of incubation at 37° C., the percentage of motile sperm was evaluated by CASA by procedures as described in D'Cruz et al., BIOL REPROD, 58:1515-1526, (1998); and D'Cruz et al., MOL HUM REPROD, 4:683-693 (1998). The percent motilities were compared with sham-treated control suspensions of motile sperm. The spermicidal activity of test compounds was expressed as the EC50 (the final concentration of the compound in medium that decreases the proportion of motile sperm by 50%).
(§1) For CASA, 4 μl of each sperm suspension were loaded into two 20-μm Microcell chambers in a counting chamber at 37° C. At least 5-8 fields per chamber were scanned for analysis using a Hamilton Thome Integrated Visual Optical System (IVOS), version 10 instrument (Hamilton Thorne Research Inc., Danvers, Mass.). Each field was recorded for 30 seconds. The computer calibrations were set at 30 frames at a frame rate of 30/second. Other settings were as follows: minimum contrast 8; minimum size 6; low-size gate, 1.0; high-size gate, 2.9; low-intensity gate, 0.6; high-intensity gate, 1.4; phase-contrast illumination; low path velocity at 10 μm/s, and threshold straightness at 80%; and magnification factor, 1.95.
(§2) The sperm kinematics parameters that were determined included numbers of motile (MOT) and progressively (PRG) motile sperm; curvilinear velocity (VCL; a measure of the total distance traveled by a given sperm during the acquisition divided by the time elapsed); average path velocity (VAP; the spatially averaged path that eliminates the wobble of the sperm head), straight line velocity (VSL; the straight-line distance from beginning to end of track divided by time taken), beat cross frequency (BCF; frequency of sperm head crossing sperm average path), the amplitude of lateral head displacement (ALH; the mean width of sperm head oscillation), and the derivatives, straightness (STR=VSL/VAP×100) and linearity (LIN=VSL/VCL×100; departure of sperm track from a straight line). Data from each individual cell track were recorded and analyzed. At least 200 motile sperm were a nalyzed for each aliquot sampled.

[2] = system: normal human ectocervical epithelial cells (CrEC 4627); test: MTT cell proliferation assay, ectocervical epithelial cells; type: cell-based; settings: for IC50: Homo sapiens, Epithelial cell, read-out: IC50 ectocervical epithelial cells; for SI (Selectivity Index) ectocervical epithelial cells: ratio of IC50 to EC50 (sperm)
Protocol: (§3) Normal human ectocervical (CrEC 4627) and endocervical epithelial cells (CrEC-En 4312) were obtained from Clonetics, (San Diego, Calif.) and propagated in T-150 cm^2 tissue culture flasks (Corning Corp., Corning, N.Y.) in small airway epithelial cell basal medium (Clonetics) supplemented with 50 μg/ml BPE, 0.5 μg/ml hydrocortisone, 0.5 μg/ml hEGF, 0.1 μg/ml retinoic acid, […] trasferrin, 5 μg/ml insulin, 5 μg/ml epinephrine, and 0.5 mg/ml BSA-FAF.
(§4) Briefly, cells were harvested with 0.125% (w/v) trypsin-0.02% EDTA (GIBCO) from exponential-phase maintenance cultures and centrifuged (300 g×5 minutes). After suspension and counting, cells were dispensed within triplicate 96-well tissue culture plates in 100 μl volumes. […] NNIs were reconstituted in DMSO to a concentration of 100 mM. […] Control wells with medium containing 0.25% of DMSO alone were included as controls. Culture plates were then incubated for 24 hour before adding 10 μl of MTT solution (5 mg/ml in PBS) to each well. Wells containing only medium and MTT were used as control for each plate. The tetrazolium/formazan reaction was allowed to proceed for 4 hours at 37° C., and then 100 μl of the solubilization buffer (10% sodium dodecyl sulfate in 0.1% HCl) was added to all wells and mixed thoroughly to dissolve the dark blue formazan crystals.
(§5) After an overnight incubation at 37° C., the optical densities (OD) at 540 nm were measured using a 96-well multiscanner autoreader with the solubilization buffer serving as blank, To translate the OD540 values into the number of live cells in each well, the OD540 values were compared to those on standard OD540-versus-cell number curves generated for each cell line. The percent survival was calculated using the formula: % survival=Live cell number [test]/Live cell number [control]×100. All assays were run in triplicate and the results were expressed as IC50 values. The IC50 was defined as the concentration required for 50% reduction in cell survival.

[3] = system: normal human endocervical epithelial cells (CrEC-En 4312); test: MTT cell proliferation assay, endocervical epithelial cells; type: cell-based; settings: for IC50: Homo sapiens, Epithelial cell, read-out: IC50 endocervical epithelial cells; for SI (Selectivity Index) endocervical epithelial cells: ratio of IC50 to EC50 (sperm)
Protocol: as §3, §4, §5

[4] = system: human sperm acrosomal membrane; test: Sperm acrosomal membrane integrity, confocal laser scanning microscopy (FITC-Pisum sativum lectin); type: cell-based; settings: for acrosome status in confocal images: 500 μM, 6 hours
Protocol: The percentages of sperm with an intact acrosome following a 6 hour treatment with and without increasing concentrations (31.2 μM to 500 μM) o f th e three NNIs (S-DABO, F-PBT and D-PBT in comparison to N-9 were evaluated by CLSM. Ethanol permeabilized and airdried sperm smears were stained sequentially with the three fluorescent markers, FITC-Pisum sativum lectin, TOTO-3 iodide, and Nile red (Molecular Probes, Eugene, Oreg.) because their targets are different (acrosome, nucleus, and membrane lipid respectively). Samples were examined under a BioRad MRC-1024 Laser Scanning Confocal Microscope (BioRad Laboratories, Hercules, Calif.) equipped with a krypton/argon mixed gas laser (excitation lines 488, 568, and 647 nm) and mounted on a Nikon Eclipse E800 series upright microscope. The fluorescence emission of fluorescein, TOTO-3 iodide, and Nile red from the acrosomal region, nucleus, and the plasma membrane of sperm after ethanol permteabilization were si multan eously detected using the […], and 680 DF32 emission/filter, respectively. Confocal images were obtained using a Nikon 100×(NA 1.35) objective lens and Kalman collection filter. Digitized images were saved on a Jaz disk (Iomega Corporation, Roy, UT) and process ed using Lasersharp Bio-Rad) with the Adobe Photoshop software (Adobe Systems, Mountain View, Calif.). Final images were printed on a Fuji Pictrography 3000 (Fuji Photo Film Co., Tokyo, Japan) color printer.

HTLVIIIB strain of HIV-1 = test: p24 antigen production in HIV-1 (HTLVIIIB) infected PBMCs; settings: Human immunodeficiency virus 1, PBMC
Protocol: The HTLVIIIB strain of HIV-1 was propagated in CCRF-CEM cells and the virus stocks obtained from cell-free supernatants of infected cells were titered using MT-2 cells. Cell-free supernatants were harvested and frozen in 1 ml aliquots at −70° C. Titration of the stock virus was performed using MT-2 cells and the cytopathic effect of the virus used in this study was typical of HIV-1 on MT-2 cells.
Cells were cultured for 7 days in 96-well microtiter plates (100 μl/well; 2×10^6 cells/ml, triplicate wells) in the presence and absence of various concentrations (0.001 μM to 100 μM) of the anti-HIV agents. Cells from non-infected controls were handled in the same way except the virus was omitted from the preparation. Aliquots of culture supernatants were removed from the wells on the 7th day after infection for RT assays and p24 antigen, as previously described in the following references: Erice et al., ANTIMICROB AG CHEMOTHER, 37:835-838 (1993); Uckun et al., ANTIMICROB AGENTS CHEMOTHER, 42:383-388 (1998); and Zarling et al., Nature 347:92-95 (1990).
The p24 enzyme immunoassay was the unmodified kinetic assay available commercially (Coulter Corporation/Immunotech, Inc., Westbrook, Me.). The assay uses a murine monoclonal antibody to the HIV core protein coated onto microwell strips to which the antigen present in the test culture supernatant sample binds. […] The plates were read on a ELISA reader (Molecular Devices, Sunnyvale, Calif.) at 650 nm and p24 levels, expressed as ng/ml, were calculated against known standards supplied by Coulter/Immunotech, Inc. Percent viral inhibition was calculated by comparing the p24 values for the test substance-treated infected cells with the p24 values for untreated infected cells (i.e., virus controls).
Percent inhibition of virus replication was calculated by comparing the p24 antigen values or RT activity from the test drug-treated infected cells with p24 antigen values or RT activity from untreated infected cells. The anti-HIV activity of compounds was expressed as the IC50 values, calculated from the dose-response curves, and defined as the drug concentration that decreases the HIV-1 RT activity or p24 antigen production in HIV-1 infected PBMCs, by 50%.

[5] = molecular target: purified recombinant HIV RT (Human immunodeficiency virus type 1 group M subtype B, UniProt P04585); test: RT inhibitory activity against purified recombinant HIV RT (cell-free Quan-T-RT scintillation proximity assay)
Protocol: In the assay, a DNA/RNA primer/template is bound to SPA beads via a biotin/streptavidin linkage. The primer DNA is a 16-mer oligo(T) which has been annealed to a poly(rA) template. The primer/template is bound to a streptavidin-coated SPA bead. ^3H-TTP is incorporated into the primer by reverse transcription. In brief, ^3H-TTP, at a final concentration of 0.5 Ci/sample was diluted in RT assay buffer (49.5 mM Tris-HCl, pH 8.0, 80 mM KCl, 10 mM MgCl2, 10 mM DTT, 2.5 mM EGTA, 0.05% Nonidet-P-40), and added to annealed DNA/RNA bound to SPA beads. The compound being tested was added to the reaction mixture at 0.001 μM-100 μM concentrations. […] The reaction was stopped by addition of 0.2 ml of 120 mM EDTA. The samples were counted in an open window using a Beckman LS 7600 instrument (Beckman Instruments, Fullerton, Calif.).

human sperm [6] = test: Time-dependent sperm immobilization and sperm kinematic parameters, CASA; type: cell-based; settings: 1 mM
Protocol: To test the effect of duration of incubation on SIA of spermicidal NNIs, motile fractions of sperm (10^7/ml) were incubated at 37° C. in BWW-0.3% BSA in the presence of 1 mM F-PBT, S-DABO in 1% DMSO or 1% DMSO alone as vehicle control. At timed intervals of 5 or 10 minutes, duplicate aliquots (4-μl) were transferred to two 20 μm Microcell chambers (Conception Technologies) and sperm motility was assessed by CASA for a duration of 60 minutes.
as §1, §2

[7] = 168 h, read-out: IC50 p24 (HTLVIIIB)
[8] = 3 hours incubation at 37° C., CASA
[9] = in Homo sapiens, read-out: IC50[p24], HIV replication in PBMCs

Compound	EC50 (human sperm [1]; 3 h)	IC50 ([2]; 24 h)	SI (Selectivity Index) ectocervical epithelial cells [2]	IC50 ([3]; 24 h)	SI (Selectivity Index) endocervical epithelial cells [3]	acrosome status in confocal images [4]	IC50 (HTLVIIIB strain of HIV-1; [7])	effect on sperm motion parameters (PRG, VCL, VAP, VSL, STR, LIN, BCF, ALH) (human sperm [1]; CASA)	EC50 (human sperm [1]; [8])	effect on sperm motility (human sperm [1])	IC50 (HTLVIIIB strain of HIV-1; [9])	IC50 [5]	spermicidal activity (in words) (human sperm [1])	also measured
CCCCCCCCCc1ccc(OCCOCCOCCOCCOCCOCCOCCOCCOCCO)cc1 [Compound N-9, nonoxynol-9, reference compound]	81 µM	15 µM	0.18	11 µM	0.13	no green fluorescence; also recorded: only acrosome-reacted sperm	2.2 µM							acrosomal staining (FIG. 5A) ([4]; after 6 hours of incubation): complete loss of acrosomal staining
COc1ccc(OC)c(CCNC(=S)Nc2ccc(Br)cn2)c1 [D-PBT, N-[2-(2,5-dimethoxyphenethyl)]-N′-[2-(5-bromopyridyl)]-thiourea]							< 0.001 µM	did not alter the sperm motion parameters	> 500 µM	did not affect sperm motility	< 0.001 µM	0.1 µM		
Fc1ccccc1CCNC(=S)Nc1ccc(Br)cn1 [F-PBT, N-[2-(2-fluorophenethyl)]-N′-[2-(5-bromopyridyl)]-thiourea]	147 µM	> 1000 µM	>6.8	> 1000 µM	>6.8	acrosomes remained intact; also recorded: None of the FIGS. 5B, 5C, or 5D show increased acrosome reaction	< 0.001 µM				< 0.001 µM	0.4 µM	concentration- and time-dependent spermicidal activity	time required for 50% motility loss of progressively motile sperm (human sperm [6]; 37° C.): 10 min; beat cross frequency (BCF) and amplitude of lateral head displacement (ALH) (human sperm [6]; time-dependent, 60 minutes): relatively stable; linearity (LIN) and straightness (STR) (human sperm [6]; time-dependent, 60 minutes): remained relatively constant; movement characteristics of surviving sperm (VCL, VAP, VSL) (human sperm [6]; time-dependent, 60 minutes): significant changes; IC50 [2]: > 1000 µM; IC50 [3]: > 1000 µM
CSCSc1nc(Cc2ccccc2)c(C(C)C)c(=O)[nH]1 [S-DABO, 5-isopropyl-2-[(methylthiomethyl)thio]-6-(benzyl)-pyrimidin-4-(1H)-one]			>19.8		>19.8	acrosomes remained intact; also recorded: None of the FIGS. 5B, 5C, or 5D show increased acrosome reaction	< 0.001 µM		202 µM		< 0.001 µM	6.1 µM	concentration- and time-dependent spermicidal activity	IC50 ([2]; 24 hours treatment, MTT): > 4000 µM; IC50 ([2]; MTT dose survival curves): > 4000 µM; IC50 ([3]; 24 hours treatment, MTT): > 4000 µM; IC50 ([3]; MTT dose survival curves): > 4000 µM
S=C(NCCc1ccccn1)Nc1ccc(Br)cn1 [Trovirdine, reference compound]	> 500 µM						0.007 µM	did not alter the sperm motion parameters		did not affect sperm motility				
